From ChEMBL document CHEMBL3044809, “Design, synthesis, and fungicidal activities of new strobilurin derivatives” (2007)
Converted amounts (≈) assume the structure as drawn.

Columns and labels:
Assay type in all cases: functional
Fusarium graminearum = assay: Antifungal activity against Fusarium graminearum assessed as inhibition rate at 50 ug/mL
Fusarium oxysporum = assay: Antifungal activity against Fusarium oxysporum assessed as inhibition rate at 50 ug/mL
Colletotrichum gossypii = assay: Antifungal activity against Colletotrichum gossypii assessed as inhibition rate at 50 ug/mL
Rhizoctonia solani = assay: Antifungal activity against Rhizoctonia solani assessed as inhibition rate at 50 ug/mL
Dothiorella gregaria = assay: Antifungal activity against Dothiorella gregaria assessed as inhibition rate at 50 ug/mL
Botrytis = assay: Antifungal activity against Botrytis cinereapers assessed as inhibition rate at 50 ug/mL
[1] = system: Pseudoperonospora cubensis; assay: Antifungal activity against Pseudoperonospora cubensis inoculated in inoculated in cucumber plant assessed as preventive fungicidal activity at 100 ug/mL measured after 7 days
Podosphaera fuliginea [2] = assay: Antifungal activity against Podosphaera fuliginea inoculated in inoculated in cucumber plant assessed as preventive fungicidal activity at 100 ug/mL measured after 7 days
Podosphaera fuliginea [3] = assay: Antifungal activity against Podosphaera fuliginea inoculated in inoculated in cucumber plant assessed as preventive fungicidal activity at 50 ug/mL measured after 7 days
[4] = system: Pseudoperonospora cubensis; assay: Antifungal activity against Pseudoperonospora cubensis inoculated in inoculated in cucumber plant assessed as preventive fungicidal activity at 25 ug/mL measured after 7 days
[5] = system: Pseudoperonospora cubensis; assay: Antifungal activity against Pseudoperonospora cubensis inoculated in inoculated in cucumber plant assessed as preventive fungicidal activity measured after 7 days; details: 168 h
Podosphaera fuliginea [6] = assay: Antifungal activity against Podosphaera fuliginea inoculated in inoculated in cucumber plant assessed as preventive fungicidal activity measured after 7 days; details: 168 h
Podosphaera fuliginea [7] = assay: Antifungal activity against Podosphaera fuliginea inoculated in inoculated in cucumber plant assessed as preventive fungicidal activity at 25 ug/mL measured after 7 days
[8] = system: Pseudoperonospora cubensis; assay: Antifungal activity against Pseudoperonospora cubensis inoculated in inoculated in cucumber plant assessed as preventive fungicidal activity at 50 ug/mL measured after 7 days

SMILES: CO/N=C(/C(=O)OC)c1ccccc1CSc1nnc(CSc2nc3nc(C)cc(C)n3n2)s1
- inhibition at 50 µg/mL (Fusarium graminearum): 45%
- inhibition at 50 µg/mL (Fusarium oxysporum): 54%
- inhibition at 50 µg/mL (Colletotrichum gossypii): 32%
- inhibition at 50 µg/mL (Rhizoctonia solani): 78%
- inhibition at 50 µg/mL (Dothiorella gregaria): 58%
- inhibition at 50 µg/mL (Botrytis): 64%

SMILES: CO/C=C(/C(=O)OC)c1ccccc1CSc1nc(C)cc(C)n1
- Activity [1]: 0%
- inhibition at 50 µg/mL (Fusarium graminearum): 74%
- Activity (Podosphaera fuliginea [2]): 70%
- inhibition at 50 µg/mL (Fusarium oxysporum): 79%
- inhibition at 50 µg/mL (Colletotrichum gossypii): 52%
- inhibition at 50 µg/mL (Rhizoctonia solani): 83%
- inhibition at 50 µg/mL (Dothiorella gregaria): 91%
- inhibition at 50 µg/mL (Botrytis): 52%
- Activity (Podosphaera fuliginea [3]): 40%

SMILES: CO/C=C(/C(=O)OC)c1ccccc1CSc1nnc(N)s1
- inhibition at 50 µg/mL (Fusarium graminearum): 40%
- inhibition at 50 µg/mL (Fusarium oxysporum): 65%
- inhibition at 50 µg/mL (Colletotrichum gossypii): 39%
- inhibition at 50 µg/mL (Rhizoctonia solani): 61%
- inhibition at 50 µg/mL (Dothiorella gregaria): 55%
- inhibition at 50 µg/mL (Botrytis): 11%

SMILES: CO/C=C(/C(=O)OC)c1ccccc1CSc1nnc(-c2ccccc2)n1N
- inhibition at 50 µg/mL (Fusarium graminearum): 69%
- inhibition at 50 µg/mL (Fusarium oxysporum): 76%
- inhibition at 50 µg/mL (Colletotrichum gossypii): 64%
- inhibition at 50 µg/mL (Rhizoctonia solani): 84%
- inhibition at 50 µg/mL (Dothiorella gregaria): 76%
- inhibition at 50 µg/mL (Botrytis): 41%

SMILES: CO/C=C(/C(=O)OC)c1ccccc1CSc1nc2ccccc2[nH]1
- inhibition at 50 µg/mL (Fusarium graminearum): 53%
- inhibition at 50 µg/mL (Fusarium oxysporum): 45%
- inhibition at 50 µg/mL (Colletotrichum gossypii): 52%
- inhibition at 50 µg/mL (Rhizoctonia solani): 78%
- inhibition at 50 µg/mL (Dothiorella gregaria): 87%
- inhibition at 50 µg/mL (Botrytis): 47%

SMILES: CO/C=C(/C(=O)OC)c1ccccc1CSc1nc2ccccc2o1
- inhibition at 50 µg/mL (Fusarium graminearum): 81%
- inhibition at 50 µg/mL (Fusarium oxysporum): 69%
- inhibition at 50 µg/mL (Colletotrichum gossypii): 83%
- inhibition at 50 µg/mL (Rhizoctonia solani): 78%
- inhibition at 50 µg/mL (Dothiorella gregaria): 46%
- inhibition at 50 µg/mL (Botrytis): 47%

SMILES: CO/C=C(/C(=O)OC)c1ccccc1CSc1nc2ccccc2s1
- Activity [1]: 100%
- Activity [4]: 62%
- inhibition at 50 µg/mL (Fusarium graminearum): 74%
- Activity (Podosphaera fuliginea [2]): 100%
- inhibition at 50 µg/mL (Fusarium oxysporum): 69%
- EC90 [5]: 46.3 µg/mL (≈ 125 µM)
- EC90 (Podosphaera fuliginea [6]): 6.17 µg/mL (≈ 16.6 µM)
- inhibition at 50 µg/mL (Colletotrichum gossypii): 86%
- inhibition at 50 µg/mL (Rhizoctonia solani): 87%
- inhibition at 50 µg/mL (Dothiorella gregaria): 94%
- inhibition at 50 µg/mL (Botrytis): 47%
- Activity (Podosphaera fuliginea [3]): 100%
- Activity (Podosphaera fuliginea [7]): 100%
- Activity [8]: 94%

SMILES: CO/C=C(/C(=O)OC)c1ccccc1CSc1nn2c(C)nnc2s1
- inhibition at 50 µg/mL (Fusarium graminearum): 53%
- inhibition at 50 µg/mL (Fusarium oxysporum): 59%
- inhibition at 50 µg/mL (Colletotrichum gossypii): 50%
- inhibition at 50 µg/mL (Rhizoctonia solani): 83%
- inhibition at 50 µg/mL (Dothiorella gregaria): 82%
- inhibition at 50 µg/mL (Botrytis): 41%

SMILES: CO/C=C(/C(=O)OC)c1ccccc1CSc1nc2nc(C)cc(C)n2n1
- inhibition at 50 µg/mL (Fusarium graminearum): 47%
- inhibition at 50 µg/mL (Fusarium oxysporum): 61%
- inhibition at 50 µg/mL (Colletotrichum gossypii): 39%
- inhibition at 50 µg/mL (Rhizoctonia solani): 66%
- inhibition at 50 µg/mL (Dothiorella gregaria): 78%
- inhibition at 50 µg/mL (Botrytis): 7%

SMILES: CO/C=C(/C(=O)OC)c1ccccc1CSc1nnc(CSc2nc3nc(C)cc(C)n3n2)o1
- inhibition at 50 µg/mL (Fusarium graminearum): 36%
- inhibition at 50 µg/mL (Fusarium oxysporum): 36%
- inhibition at 50 µg/mL (Colletotrichum gossypii): 39%
- inhibition at 50 µg/mL (Rhizoctonia solani): 73%
- inhibition at 50 µg/mL (Dothiorella gregaria): 73%
- inhibition at 50 µg/mL (Botrytis): 36%

SMILES: CO/C=C(/C(=O)OC)c1ccccc1CSc1nnc(CSc2nc3nc(C)cc(C)n3n2)s1
- inhibition at 50 µg/mL (Fusarium graminearum): 44%
- inhibition at 50 µg/mL (Fusarium oxysporum): 61%
- inhibition at 50 µg/mL (Colletotrichum gossypii): 39%
- inhibition at 50 µg/mL (Rhizoctonia solani): 58%
- inhibition at 50 µg/mL (Dothiorella gregaria): 69%
- inhibition at 50 µg/mL (Botrytis): 14%

SMILES: CO/C=C(/C(=O)OC)c1ccccc1CSc1nnc(CSc2nc3nc(C)cc(C)n3n2)n1N
- inhibition at 50 µg/mL (Fusarium graminearum): 43%
- inhibition at 50 µg/mL (Fusarium oxysporum): 44%
- inhibition at 50 µg/mL (Colletotrichum gossypii): 35%
- inhibition at 50 µg/mL (Rhizoctonia solani): 73%
- inhibition at 50 µg/mL (Dothiorella gregaria): 78%
- inhibition at 50 µg/mL (Botrytis): 14%

SMILES: CO/C=C(/C(=O)OC)c1ccccc1CSc1nnc(CSc2nc3nc(C)cc(C)n3n2)n1-c1ccccc1
- inhibition at 50 µg/mL (Fusarium graminearum): 36%
- inhibition at 50 µg/mL (Fusarium oxysporum): 40%
- inhibition at 50 µg/mL (Colletotrichum gossypii): 17%
- inhibition at 50 µg/mL (Rhizoctonia solani): 37%
- inhibition at 50 µg/mL (Dothiorella gregaria): 11%
- inhibition at 50 µg/mL (Botrytis): 7%

SMILES: CO/C=C(/C(=O)OC)c1ccccc1CSc1cc(=O)c2ccccc2s1
- inhibition at 50 µg/mL (Fusarium graminearum): 53%
- inhibition at 50 µg/mL (Fusarium oxysporum): 48%
- inhibition at 50 µg/mL (Colletotrichum gossypii): 52%
- inhibition at 50 µg/mL (Rhizoctonia solani): 64%
- inhibition at 50 µg/mL (Dothiorella gregaria): 14%
- inhibition at 50 µg/mL (Botrytis): 18%

SMILES: CO/N=C(/C(=O)OC)c1ccccc1CSc1cc(=O)c2ccccc2s1
- inhibition at 50 µg/mL (Fusarium graminearum): 61%
- inhibition at 50 µg/mL (Fusarium oxysporum): 44%
- inhibition at 50 µg/mL (Colletotrichum gossypii): 48%
- inhibition at 50 µg/mL (Rhizoctonia solani): 73%
- inhibition at 50 µg/mL (Dothiorella gregaria): 19%
- inhibition at 50 µg/mL (Botrytis): 23%

SMILES: CO/N=C(/C(=O)OC)c1ccccc1CSc1nc(C)cc(C)n1
- inhibition at 50 µg/mL (Fusarium graminearum): 61%
- inhibition at 50 µg/mL (Fusarium oxysporum): 76%
- inhibition at 50 µg/mL (Colletotrichum gossypii): 59%
- inhibition at 50 µg/mL (Rhizoctonia solani): 73%
- inhibition at 50 µg/mL (Dothiorella gregaria): 82%
- inhibition at 50 µg/mL (Botrytis): 27%

SMILES: CO/N=C(/C(=O)OC)c1ccccc1CSc1nc2ccccc2[nH]1
- Activity [1]: 0%
- inhibition at 50 µg/mL (Fusarium graminearum): 69%
- Activity (Podosphaera fuliginea [2]): 0%
- inhibition at 50 µg/mL (Fusarium oxysporum): 72%
- inhibition at 50 µg/mL (Colletotrichum gossypii): 82%
- inhibition at 50 µg/mL (Rhizoctonia solani): 90%
- inhibition at 50 µg/mL (Dothiorella gregaria): 87%
- inhibition at 50 µg/mL (Botrytis): 77%

SMILES: CO/N=C(/C(=O)OC)c1ccccc1CSc1nc2ccccc2s1
- Activity [1]: 84%
- Activity [4]: 39%
- inhibition at 50 µg/mL (Fusarium graminearum): 81%
- Activity (Podosphaera fuliginea [2]): 100%
- inhibition at 50 µg/mL (Fusarium oxysporum): 74%
- EC90 [5]: 150 µg/mL (≈ 404 µM)
- EC90 (Podosphaera fuliginea [6]): 9.6 µg/mL (≈ 25.8 µM)
- inhibition at 50 µg/mL (Colletotrichum gossypii): 75%
- inhibition at 50 µg/mL (Rhizoctonia solani): 82%
- inhibition at 50 µg/mL (Dothiorella gregaria): 84%
- inhibition at 50 µg/mL (Botrytis): 52%
- Activity (Podosphaera fuliginea [3]): 100%
- Activity (Podosphaera fuliginea [7]): 97%
- Activity [8]: 66%

SMILES: CO/N=C(/C(=O)OC)c1ccccc1CSc1nc2nc(C)cc(C)n2n1
- inhibition at 50 µg/mL (Fusarium graminearum): 50%
- inhibition at 50 µg/mL (Fusarium oxysporum): 50%
- inhibition at 50 µg/mL (Colletotrichum gossypii): 35%
- inhibition at 50 µg/mL (Rhizoctonia solani): 69%
- inhibition at 50 µg/mL (Dothiorella gregaria): 78%
- inhibition at 50 µg/mL (Botrytis): 14%

SMILES: CO/N=C(/C(=O)OC)c1ccccc1CSc1nnc(CSc2nc3nc(C)cc(C)n3n2)o1
- inhibition at 50 µg/mL (Fusarium graminearum): 41%
- inhibition at 50 µg/mL (Fusarium oxysporum): 63%
- inhibition at 50 µg/mL (Colletotrichum gossypii): 36%
- inhibition at 50 µg/mL (Rhizoctonia solani): 88%
- inhibition at 50 µg/mL (Dothiorella gregaria): 70%
- inhibition at 50 µg/mL (Botrytis): 77%

SMILES: CO/N=C(/C(=O)OC)c1ccccc1COc1ccccc1C [KRESOXIM-METHYL]
- Activity [1]: 80%
- Activity [4]: 27%
- inhibition at 50 µg/mL (Fusarium graminearum): 53%
- Activity (Podosphaera fuliginea [2]): 100%
- inhibition at 50 µg/mL (Fusarium oxysporum): 61%
- EC90 [5]: 155 µg/mL (≈ 494 µM)
- EC90 (Podosphaera fuliginea [6]): 7.3 µg/mL (≈ 23.3 µM)
- inhibition at 50 µg/mL (Colletotrichum gossypii): 50%
- inhibition at 50 µg/mL (Rhizoctonia solani): 70%
- inhibition at 50 µg/mL (Dothiorella gregaria): 82%
- inhibition at 50 µg/mL (Botrytis): 50%
- Activity (Podosphaera fuliginea [3]): 100%
- Activity (Podosphaera fuliginea [7]): 98%
- Activity [8]: 56%

SMILES: CC(C)(C)C(=O)C(Oc1ccc(Cl)cc1)n1cncn1 (stereo unspecified) [TRIADIMEFON]
- inhibition at 50 µg/mL (Fusarium graminearum): 72%
- inhibition at 50 µg/mL (Fusarium oxysporum): 86%
- inhibition at 50 µg/mL (Colletotrichum gossypii): 95%
- inhibition at 50 µg/mL (Rhizoctonia solani): 90%
- inhibition at 50 µg/mL (Dothiorella gregaria): 61%
- inhibition at 50 µg/mL (Botrytis): 84%
